From PMC2099433, “The binding site for neohesperidin dihydrochalcone at the human sweet taste receptor” (BMC Structural Biology, 2007)
Numbering of substitutions follows the chain as printed. Where a SMILES comes first, the peptide text is derived from it.

Columns and labels:
[1] = biological target: T1, hTAS1R2 + hTAS1R3 L798I^7.36 (Homo sapiens, UniProt Q7RTX0+Q8TE23, L798I); experiment: Calcium response (FLIPR), hTAS1R3 mutant coexpressed with hTAS1R2; assay type: cell-based; conditions: variant L798I^7.36; for Emax: read-out: maximal signal (% of wt)
T1 construct: expressed in transfected cells; host or cells: HEK293T cells stably expressing G16Gust44
T1 sequence (Q8TE23 20-839): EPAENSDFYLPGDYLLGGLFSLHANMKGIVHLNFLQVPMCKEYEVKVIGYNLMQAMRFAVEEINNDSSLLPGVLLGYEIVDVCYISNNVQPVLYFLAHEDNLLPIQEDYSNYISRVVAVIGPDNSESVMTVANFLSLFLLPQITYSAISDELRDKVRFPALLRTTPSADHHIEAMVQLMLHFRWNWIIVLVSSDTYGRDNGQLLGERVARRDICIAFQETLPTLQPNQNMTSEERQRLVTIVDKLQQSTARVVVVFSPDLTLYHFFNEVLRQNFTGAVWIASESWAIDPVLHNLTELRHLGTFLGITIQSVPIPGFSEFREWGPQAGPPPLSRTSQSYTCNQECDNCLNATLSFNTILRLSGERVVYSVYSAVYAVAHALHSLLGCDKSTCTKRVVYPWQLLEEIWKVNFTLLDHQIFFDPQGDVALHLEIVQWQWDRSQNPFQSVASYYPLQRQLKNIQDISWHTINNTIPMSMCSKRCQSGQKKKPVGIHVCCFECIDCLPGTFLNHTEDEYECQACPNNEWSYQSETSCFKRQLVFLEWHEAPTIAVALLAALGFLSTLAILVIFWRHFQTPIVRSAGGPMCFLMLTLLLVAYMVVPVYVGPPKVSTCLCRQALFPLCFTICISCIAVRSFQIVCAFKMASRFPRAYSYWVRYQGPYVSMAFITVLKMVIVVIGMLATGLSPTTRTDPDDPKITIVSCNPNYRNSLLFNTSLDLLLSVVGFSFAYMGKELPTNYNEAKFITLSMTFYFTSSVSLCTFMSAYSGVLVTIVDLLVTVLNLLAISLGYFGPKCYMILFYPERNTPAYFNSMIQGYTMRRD
T1 sequence (Q7RTX0 21-852 L798I): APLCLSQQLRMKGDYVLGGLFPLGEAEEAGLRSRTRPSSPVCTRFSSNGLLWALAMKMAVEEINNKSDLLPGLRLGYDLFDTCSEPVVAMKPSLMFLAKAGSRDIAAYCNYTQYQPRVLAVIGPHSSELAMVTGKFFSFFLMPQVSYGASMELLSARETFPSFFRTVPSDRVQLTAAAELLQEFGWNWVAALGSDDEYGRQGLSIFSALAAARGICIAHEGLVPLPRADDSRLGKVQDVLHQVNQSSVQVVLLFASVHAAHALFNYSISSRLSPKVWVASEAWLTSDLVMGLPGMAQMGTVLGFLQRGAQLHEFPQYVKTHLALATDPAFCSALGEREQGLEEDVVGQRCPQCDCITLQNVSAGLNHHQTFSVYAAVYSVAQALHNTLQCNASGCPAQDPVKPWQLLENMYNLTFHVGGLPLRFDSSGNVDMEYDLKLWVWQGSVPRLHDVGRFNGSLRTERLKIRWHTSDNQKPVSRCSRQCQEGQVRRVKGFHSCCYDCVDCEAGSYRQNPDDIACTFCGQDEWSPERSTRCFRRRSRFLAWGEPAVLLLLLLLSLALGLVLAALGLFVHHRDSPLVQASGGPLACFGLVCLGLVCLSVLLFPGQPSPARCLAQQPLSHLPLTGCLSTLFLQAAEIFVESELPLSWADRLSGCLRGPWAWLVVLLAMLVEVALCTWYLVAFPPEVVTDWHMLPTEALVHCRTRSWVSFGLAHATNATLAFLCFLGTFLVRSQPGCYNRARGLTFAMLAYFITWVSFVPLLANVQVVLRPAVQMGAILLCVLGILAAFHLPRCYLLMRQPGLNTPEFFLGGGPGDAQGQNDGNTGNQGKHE
Outline: (§1)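 HEK293T cells stably expressing chimeric G16Gust44 were transiently transfected with C-terminally HSV-tagged hTAS1R2 and mutant hTAS1R3, then loaded 24 h later with Fluo4-AM for 1 h. Calcium mobilization after sweet-tastant application was read by FLIPR, mock-corrected and expressed as ΔF/F.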

[2] = biological target: T2, hTAS1R2 + hTAS1R3 Y699L^4.60 (Homo sapiens, UniProt Q7RTX0+Q8TE23, Y699L); experiment: as above; assay type: cell-based; conditions: variant Y699L^4.60; for Emax: read-out: maximal signal (% of wt)
T2 construct: expressed in transfected cells; host or cells: HEK293T cells stably expressing G16Gust44
T2 sequence (Q7RTX0 21-852 Y699L): T1 sequence (Q7RTX0 21-852 L798I) with Y679L, I778L
T2 sequence (Q8TE23 20-839): T1 sequence (Q8TE23 20-839)
Outline: as §1

EC50 [1]	Emax [1]	EC50 [2]	Emax [2]	SMILES
200 ± 200 µM	66 ± 26%	700 ± 100 µM	83 ± 40%	COc1ccc(CCC(=O)c2c(O)cc(O[C@@H]3O[C@H](CO)[C@@H](O)[C@H](O)[C@H]3O[C@@H]3O[C@@H](C)[C@H](O)[C@@H](O)[C@H]3O)cc2O)cc1O [NHDC, neohesperidin dihydrochalcone]
900 ± 400 µM	81 ± 5%	1600 ± 400 µM	78 ± 9%	COC(=O)[C@H](Cc1ccccc1)NC(=O)[C@@H](N)CC(=O)O [aspartame] (HELM PEPTIDE1{D.F.[CO[*:1]]}$$$$V2.0)
